The test deals with Thymidylate synthase (Mus musculus, L1210). Nature of the test: Inhibitory concentration of compound to inhibit Thymidylate synthase (TS) in L1210 cells at conc. of 200 uM.

The text below walks through data of BindingDB's records for doi:10.1021/jm00124a018 (Institute of Cancer Research, 1989).

The compound `CCN(Cc1ccc2nc[nH]c(=O)c2c1)c1ccc(C(=O)NC(CCC(=O)O)C(=O)O)cc1` (configuration not stated) gave an IC50 of 520 nM.

In turn, `CCN(Cc1ccc2nc(N)[nH]c(=O)c2c1)c1ccc(C(=O)NC(CCC(=O)O)C(=O)O)cc1` (configuration not stated) had an IC50 of 60 nM.
